Legend:
cleaved-PARP1 = assay: Western blot of cleaved-PARP1 in h-α-syn PFF-transduced HEK293A cells; format: cell-based, human; conditions: 1 μM, 24 h
Procedure: (§1) For the separation of Triton X-100 soluble and insoluble fractions for monitoring α-syn, cells were washed with PBS and lysed in Triton X-100 buffer (50 mM Tris / 150 mM NaCl / 100 mM EDTA / 1% Triton X-100, pH 7.6) containing protease and phosphatase inhibitors for 30 min on ice. The lysates were centrifuged at 12,000 rpm for 30 min, and the soluble supernatant was taken. The remaining pellets were washed with Triton X-100 buffer, followed by centrifugation at 12,000 rpm for 20 min. The supernatants were discarded, and the resulting insoluble pellets were resuspended in laemli buffer containing 1% SDS. Samples were subjected to SDS-PAGE. After blocking with 5% milk and washing process, the membranes were incubated with primary antibodies overnight at 4 °C, followed by washing with PBS-T and incubation with horseradish peroxidase-conjugated secondary antibodies. Immunoreactive bands were detected using ECL reagents (Thermo Fisher Scientific, 32,106). For non-reducing SDS-PAGE, cell lysates were mixed with 4 × laemli buffer containing no 2-mercaptoethanol. For reducing SDS-PAGE, cells were lysed by RIPA buffer (150 mM NaCl, 1% Triton X-100, 1% sodium deoxycholate, 0.1% Tris–HCl, pH 7.5, 2 mM EDTA) and prepared with 5 × protein sample buffer containing 2-mercaptoethanol (Elpis Biotech, EBA-1052). Densitometry of developed bands was analyzed with ImageJ (NIH, Bethesda).

[1] = test system: HEK293A cells transduced with h-α-syn PFFs; assay: Immunocytochemistry in HEK293A cells transduced with h-α-syn PFFs; format: cell-based, human
Procedure: Recombinant human α-syn (1–140) were obtained from NKMAX (SNA2001L). In vitro fibrillization was performed by diluting recombinant α-syn monomers to 1 mg/mL in sterile PBS, then incubating at 37 °C with constant agitation at 1,000 rpm for seven days. The fibrillization was verified by thioflavin T and sedimentation assays. The ability to form phospho-α-syn (S129) was also assessed by immunocytochemistry. In addition, to determine whether the generated PFFs act as seeds to accumulate endogenous α-syn, an adenovirus that expresses c-Myc-His-tagged human α-syn (gifted from lab of S.J.L) was used to infect cultured cells at an MOI of 10, followed by a fractionation assay. The administration of PFFs into 293A cells was done with protein delivery reagent (BioPORTER QuikEase Protein Delivery Kit, Sigma) following the provider’s instruction. The mouse α-syn PFFs were obtained from StressMarq (SPR-324). Prior to treatment, PFFs were sonicated at 20% amplitude, 1 s pulse on and off for 30 s (SONICS Vibra Cell sonicator, Merck Z412619). For cells, α-syn monomers and PFFs were transduced at 1 µg/mL.
(§2) Cells were fixed with 4% paraformaldehyde (PFA) for 20 min at room temperature, followed by permeabilization with 0.1% Triton X-100 buffer for 15 min. The cells were blocked with 2% bovine serum albumin (BSA) in PBS for 1 h at room temperature. Then, the cells were incubated with primary antibodies diluted in the blocking buffer overnight at 4 °C. After washing with PBS, the slides were incubated with AlexaFluor-conjugated secondary antibodies for 1 h at room temperature. After mounting the slides with mounting solution containing DAPI, the images were captured on an LSM700 confocal microscopy (Carl Zeiss).

p62 [2] = biological target: T1, p62 (Mus musculus, UniProt Q64337); assay: Western blot in wild-type and p62-/- MEFs transduced with α-syn PFFs; format: cell-based; conditions: 1 μM, 12 h
T1 construct: endogenous in cells; host or cells: wild-type and p62-/- MEFs (Keiji Tanaka's laboratory)
Text: Wild type human neuroblastoma cells (SH-SY5Y) and Hela were obtained from Korean Cell Line Bank. SH-SY5Y α-syn A53T cells, COS7 cells and 293A cell line were kindly gifted from S.J.L. lab. COS7 cells, 293A cells, wild-type and p62^−/− MEF cells, and wild type or A53T mutant α-syn SH-SY5Y cells were maintained in Dulbecco’s Modified Eagle’s Medium (DMEM) containing 10% fetal bovine serum (FBS). Wild-type and p62^−/− MEFs were obtained from Keiji Tanaka’s laboratory (Tokyo Metropolitan Research Institute, Japan). Cells were incubated at 37 °C in a 5% CO2 humidified chamber. The differentiation of SH-SY5Y α-syn A53T cells was done by 10 µM retinoic acid for 7 days prior to subsequent experiments.
For the separation of Triton X-100 soluble and insoluble fractions for monitoring α-syn, cells were washed with PBS and lysed in Triton X-100 buffer (50 mM Tris / 150 mM NaCl / 100 mM EDTA / 1% Triton X-100, pH 7.6) containing protease and phosphatase inhibitors for 30 min on ice. The lysates were centrifuged at 12,000 rpm for 30 min, and the soluble supernatant was taken. The remaining pellets were washed with Triton X-100 buffer, followed by centrifugation at 12,000 rpm for 20 min. […] Immunoreactive bands were detected using ECL reagents (Thermo Fisher Scientific, 32,106). […] Densitometry of developed bands was analyzed with ImageJ (NIH, Bethesda).

[3] = Brain penetration of ATC161 in TauP301L-BiFC AD mouse model; format: in vivo, mice; conditions: after 4 h of oral administration
Procedure: (§3) Supplementary file 13024_2023_630_MOESM1_ESM.eps: Additional file 1: Supplementary figure 1. Drug profiles of ATL and Autotac compounds. A, drug profiles of ATL compounds. Tissue concentrations and oral bioavailability were measured in ICR male mice upon 5 mg/kg oral administration of each ATL compound. B, structures of ATC161~164. C, Pharmacokinetic study of ATC161 conducted in male ICR mice otherwise indicated. M.W. represents molecular weight. The plasma exposure and the half-life were determined upon either POor IPATC161 administration. The drug tissue exposure was determined in Tau301L BiFC mice. IV refers to intravenous injection.

p62 [4] = biological target: T2, p62 (Homo sapiens, UniProt Q13501); assay: Western blot of p62 oligomerization in HeLa cells; format: cell-based
T2 construct: endogenous in cells; host or cells: HeLa
Procedure: as §1

[5] = test system: high molecular weight α-syn aggregates; assay: Dot blot / filter trap assay for α-syn aggregates in differentiated SH-SY5Y α-syn A53T cells; format: cell-based, human; conditions: 100 nM, 24 h; 450 nm filter
Procedure: Differentiated SH-SY5Y α-syn A53T cells were treated with 2 μg/ml of a-syn PFFs, and after 24 h cells were treated with 100 nM of ATC161 for 24 h. The cells were lysed in RIPA buffer for 30 min on ice and then centrifuged at 13,000 rpm for 20 min at 4 ℃. The supernatants were aspirated and transferred into a new tube kept on ice. Protein concentration was determined by a BCA assay. The filter trap assay was performed with 5 μg of total protein diluted in 100 μL of lysate. A nitrocellulose membrane (pore size: 0.45 μm) was placed on the filter trap apparatus (96-well Bio-Dot®). Lysates were loaded and allowed to pass through the membrane under vacuum. Aggregated α-syn levels were determined by immunoblotting using an anti-α-syn aggregate antibody [MJFF-14–6-4–2] (1:2000; Abcam, ab209538).

LAMP1+ lysosomes = assay: Immunocytochemistry of LAMP1+ lysosomes in SH-SY5Y α-syn A53T cells transduced with PFFs; format: cell-based, human; conditions: 1 μM, 6 h, with Baf. A1
Procedure: as §2

[6] = Pharmacokinetic study of ATC161 in male ICR mice; format: in vivo
Procedure: as §3

LC3 = assay: Western blot of LC3 lipidation (LC3-I into LC3-II) in HeLa cells; format: cell-based; conditions: 1 μM, 24 h
Procedure: as §1

T2 sequence (Q13501 whole entry): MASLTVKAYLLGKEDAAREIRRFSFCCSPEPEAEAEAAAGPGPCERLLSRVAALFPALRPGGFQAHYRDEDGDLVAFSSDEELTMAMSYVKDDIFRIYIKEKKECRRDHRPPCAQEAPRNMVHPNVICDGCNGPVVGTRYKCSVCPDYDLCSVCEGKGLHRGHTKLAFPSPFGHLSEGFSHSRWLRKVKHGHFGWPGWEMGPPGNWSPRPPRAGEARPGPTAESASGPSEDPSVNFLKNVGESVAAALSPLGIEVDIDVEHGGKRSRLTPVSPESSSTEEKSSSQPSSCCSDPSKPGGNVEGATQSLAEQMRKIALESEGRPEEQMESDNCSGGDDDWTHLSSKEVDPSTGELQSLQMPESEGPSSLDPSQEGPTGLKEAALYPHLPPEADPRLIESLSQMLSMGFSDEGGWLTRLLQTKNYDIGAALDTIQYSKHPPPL
T1 sequence (Q64337 whole entry): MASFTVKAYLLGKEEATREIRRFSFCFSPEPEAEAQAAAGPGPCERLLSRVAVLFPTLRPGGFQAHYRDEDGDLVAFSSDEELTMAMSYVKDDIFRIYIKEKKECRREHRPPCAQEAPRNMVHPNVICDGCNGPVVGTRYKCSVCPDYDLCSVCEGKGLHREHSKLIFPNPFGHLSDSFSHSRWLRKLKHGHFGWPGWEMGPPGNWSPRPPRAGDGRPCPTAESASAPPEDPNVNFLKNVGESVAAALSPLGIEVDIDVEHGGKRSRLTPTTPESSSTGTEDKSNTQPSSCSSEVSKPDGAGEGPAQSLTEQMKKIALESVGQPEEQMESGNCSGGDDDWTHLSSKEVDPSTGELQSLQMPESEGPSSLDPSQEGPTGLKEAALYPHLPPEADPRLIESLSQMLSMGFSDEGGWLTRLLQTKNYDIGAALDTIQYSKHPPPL

Fc1ccc(COc2cccc(CNCCOCCOCCNc3cccc(-c4cc(-c5ccc6c(c5)OCO6)n[nH]4)c3)c2)cc1 [ATC161, 3-(3-(benzo[d][1,3]dioxol-5-yl)-1H-pyrazol-5-yl)-N-(2-(2-(2-((3-((4-fluorobenzyl)oxy)benzyl)amino)ethoxy)ethoxy)ethyl)aniline]
cleaved-PARP1 level (apoptotic process) (cleaved-PARP1): efficiently inhibited such an apoptotic process | number of phospho-H2AX+ foci (DNA double strand breaks) ([1]; 0.1 μM, 48 h): robust efficacy to reduce the number of phospho-H2AX^+ foci | reduction in number of α-syn+ cytosolic puncta ([1]; 1 μM, 24 h): 55% | lipidation of LC3 in the absence of p62 (p62 [2]): failed to induce the lipidation of LC3 into LC3-II | Kp at 4 h [3]: ~0.1 | p62 oligomerization compared with the other Autotac compounds (p62 [4]; 1 μM, 24 h): most efficiently facilitated p62 oligomerization | concentration inducing p62 oligomerization (p62 [4]; dose-dependent up to 1,000 nM): ~ 1 nM | degradation of high molecular weight α-syn aggregates [5]: induced the degradation of high molecular weight α-syn aggregates | increase in level of LAMP1+ lysosomes (LAMP1+ lysosomes): 2.9 fold | half-life ([6]; male, ICR, oral, mouse plasma, read-out: terminal elimination half-life (T1/2) (converted)): 3.7 h | systemic exposure ([6]; oral administration, mice): 3299.3 ng·h/mL | lipidation of LC3 into LC3-II compared with ATC162 (LC3): induced the lipidation of LC3 into LC3-II more efficiently

Source: publication PMC10290391, “Targeted degradation of ⍺-synuclein aggregates in Parkinson’s disease using the AUTOTAC technology” (Molecular Neurodegeneration, 2023)
